Laboratory results taken from PubChem BioAssay (NCI).
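Five compound concentrations were applied to cells in 96-well plates for 48 hours; endpoints were derived by simple linear interpolation of the resulting dose-response curve. Abbreviation: GI50, concentration required for 50% inhibition of growth. TGI marks complete inhibition of growth.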

Columns and labels:
Assay in all cases: NCI anticancer screen, dose series, 48 h
786-0 renal = system: 786-0 renal
HCT-15 colon = system: HCT-15 colon
HS 578T breast = system: HS 578T breast
KM12 colon = system: KM12 colon
MOLT-4 leukemia = system: MOLT-4 leukemia
NCI-H226 lung = system: NCI-H226 lung
NCI-H23 lung = system: NCI-H23 lung
OVCAR-8 ovarian = system: OVCAR-8 ovarian
SK-OV-3 ovarian = system: SK-OV-3 ovarian
T-47D breast = system: T-47D breast

Row | Compound | GI50 (786-0 renal) [µM] | TGI (786-0 renal) [µM] | GI50 (HCT-15 colon) [µM] | TGI (HCT-15 colon) [µM] | GI50 (HS 578T breast) [µM] | TGI (HS 578T breast) [µM] | GI50 (KM12 colon) [µM] | TGI (KM12 colon) [µM] | GI50 (MOLT-4 leukemia) [µM] | TGI (MOLT-4 leukemia) [µM] | GI50 (NCI-H226 lung) [µM] | TGI (NCI-H226 lung) [µM] | GI50 (NCI-H23 lung) [µM] | TGI (NCI-H23 lung) [µM] | GI50 (OVCAR-8 ovarian) [µM] | TGI (OVCAR-8 ovarian) [µM] | GI50 (SK-OV-3 ovarian) [µM] | TGI (SK-OV-3 ovarian) [µM] | GI50 (T-47D breast) [µM] | TGI (T-47D breast) [µM]
1 | CCn1cc(C(=O)N/N=C/c2cccc(F)c2)c(=O)c2cc(F)c(N3CCNC(C)C3)c(F)c21 (stereo not drawn) | 1.63 | 3.16 | 1.46 | 2.84 | 4.4 | 25.5 | 1.83 | 3.39 | 1.75 | 3.4 | 1.97 | 4.13 | 1.83 | 3.45 | 1.76 | 3.32 | 1.78 | 3.28 | 1.61 | 3.25
2 | COC1CC2C=CC3C4OC2(/C(C)=C/C(C)C(C(C)O)OC1=O)C3C(O)C(C)C4OC(=O)c1ccc[nH]1 (stereo not drawn) | – | > 100 | – | > 100 | – | > 100 | – | > 100 | – | 71.2 | – | – | – | > 100 | – | > 100 | – | – | – | > 100
3 | COc1cc2c(=O)n(CCCn3ccnc3)c3c4cc5c(cc4ccc3c2cc1OC)OCO5 | 1.93 | > 100 | 1.17 | > 100 | 2.33 | > 80.6 | 1.37 | > 100 | – | – | 0.246 | > 100 | 0.599 | > 100 | 1.46 | 41.9 | 0.443 | 11.3 | 0.245 | 7.82
4 | Cc1ccc2c(N/N=C\c3ccco3)cc(C)nc2n1 | 2.25 | 6.11 | 2.89 | 12 | 5.83 | 29.6 | 4.98 | 17.9 | 2.67 | 8.83 | 20.1 | 60.3 | – | – | 5.7 | 24 | 8.74 | 22.7 | – | –
5 | CN(C)Cc1cccc(CN(C)C)[c]1[Sn]([Br])([c]1ccccc1)[c]1ccccc1 | 14.7 | 29 | 14.5 | 29.4 | 19.8 | 47 | 11 | 28.1 | 5.02 | 20.5 | – | – | 13.5 | 46.3 | 12.4 | 26.2 | 14.3 | 30.6 | 4.72 | 21.5
6 | N#CC(C(=O)CCC(=O)Nc1ccc(Cl)cc1)c1ccccc1Cl (stereo not drawn) | – | > 100 | – | > 100 | – | – | – | > 100 | – | > 100 | – | > 100 | – | > 100 | – | > 100 | – | > 100 | – | –
7 | CCN(CC)C(=O)CNC(=O)OC(C)(C)C | – | > 100 | – | > 100 | – | – | – | > 100 | – | > 100 | – | > 100 | – | > 100 | – | > 100 | – | > 100 | – | –
8 | O=S(=O)(NCCCNc1cc(-c2cn(-c3ccccc3)nc2-c2cccc(O)c2)ccn1)c1cccc2ccccc12 | 1.59 | 3.57 | 1.8 | 6.59 | 1.42 | 8.39 | 2.49 | 7.57 | – | – | 3.4 | 45.7 | 2.89 | > 100 | 5.46 | > 100 | 4.83 | > 100 | 2.14 | 8.53
9 | COc1ccc(-c2csc(NC(=O)N3CCN(c4cc5c(cc4F)c(=O)c(C(=O)O)cn5C4CC4)CC3)n2)cc1 | 1.46 | 19.6 | 2.86 | > 100 | 2.94 | > 100 | 1.63 | > 100 | 2.54 | 9.42 | 2.95 | > 100 | – | – | – | – | – | – | 1.57 | > 100
10 | O=C(c1cc2c(C(F)(F)F)onc2c2ccccc12)C(F)(F)F | – | > 45.1 | – | > 29 | – | – | – | 52.9 | – | > 56 | – | 13.5 | – | 4.25 | – | 7.66 | – | 46.7 | – | –
11 | CC(=O)Nc1ccc2oc(=O)c3ccccc3c2c1 | – | > 100 | – | > 100 | – | > 100 | – | > 100 | – | > 100 | – | > 100 | – | > 100 | – | > 100 | – | – | – | > 100
12 | NNC(=O)CCC(=O)Nc1ccc(Cl)cc1Cl | – | > 100 | – | > 100 | – | – | – | > 100 | – | > 100 | – | > 100 | – | > 100 | – | > 100 | – | > 100 | – | –
13 | COc1cc2ccnc3c2c(c1OC)CC1CC(O)C(OC)CC31 (stereo not drawn) | – | > 100 | – | > 100 | – | – | – | > 100 | – | > 100 | – | > 100 | – | > 100 | – | > 100 | – | > 100 | – | –
14 | COc1cc([C@@H]2c3cc4c(cc3[C@@H](NCc3ccc(C#N)cc3)C3COC(=O)[C@@H]32)OCO4)cc(OC)c1O (stereo partly drawn) | – | 2.32 | – | 3.01 | – | – | – | 3.78 | – | 1.38 | – | 2.26 | – | 1.43 | – | 3.01 | – | 3.9 | – | –
15 | CC1Cc2c(N)nc(N3CCOCC3)nc2NC1=O (stereo not drawn) | – | > 100 | – | > 100 | – | – | – | > 100 | – | > 100 | – | > 100 | – | > 100 | – | > 100 | – | > 100 | – | –
16 | C[C@]12CC(C#N)C(=O)C(O)=C1CC[C@@H]1C2CC[C@@]2(C)C1CC[C@@H]2O (stereo partly drawn) | – | > 100 | – | > 100 | – | – | – | > 100 | – | > 100 | – | > 100 | – | > 100 | – | > 100 | – | > 100 | – | –
17 | CC(C)c1cccc(C(C)C)c1N=C(N)C#N | – | > 61.3 | – | > 58.2 | – | – | – | > 100 | – | > 66 | – | > 100 | – | > 100 | – | > 100 | – | > 100 | – | –
